Test results as given in patent US12492163B2, “9H-fluorene derivatives or their pharmaceutically acceptable salts” (priority 2020, dated 2025).

Experiments:
[1] = target: human recombinant beta-secretase (hBACE1) (Homo sapiens (Human), UniProt P56817); experiment: FRET assay, inhibition of human recombinant beta-secretase; assay type: biochemical; settings: for inhibition at 50 µM: 50 μM inhibitor concentration, read-out: hBACE-1 % inh; for IC50: read-out: hBACE-1 IC50
Description: The FRET assay [Vassar, et al.] was used to test activity using 384-well black plates and a microplate reader (EnSpire Multimode; PerkinElmer; Waltham, MA, USA). The test was purchased from Life Technologies Polska Sp. z o.o. (Warsaw, Poland). […] Stock solutions of test compounds were prepared in DMSO and then further diluted with assay buffer (50 mM sodium acetate; pH 4.5) to the appropriate concentrations in the wells. In the first step of the test, 10 μl of the substrate (Rh-[…] quencher, based on the so-called Swedish APP mutation) was mixed with 10 μl of the test compound (or assay buffer; for blank sample). The enzyme reaction was initiated by adding 10 μl of enzyme (hBACE1, 1 U/ml). The reaction mixture was incubated at 25° C. for 60 minutes, then 10 μL of Stop solution (2.5 M sodium acetate) was added. After stopping the reaction, fluorescence was measured at 576 nm. The percentage of enzyme inhibition was calculated from the formula [1−(S60−S0)/(C60−C0)]×100, where S0 and S60 are the fluorescence of the test sample (containing the enzyme, substrate and test compound) at the start of the reaction and after 60 minutes, respectively, whereas C0 and C60 were analogous fluorescence intensities in the blank samples (containing enzyme, substrate and buffer). All test compounds were tested at a concentration of 50 μM in triplicate. […] A BACE1 IV inhibitor (Calbiochem, Merck; Nottingham, UK) [Stachel et al.] was used as a reference compound. […] IC50 values for all test compounds were calculated using non-linear regression (GraphPad Prism 5 [GraphPad Software, San Diego, CA, USA 5.00]) for the percentage of enzyme inhibition against the inhibitor concentration used.

mGAT3 = mGAT3 (Mus musculus (Mouse), UniProt P31649); experiment: [3H]GABA uptake inhibition, mGAT3 in HEK293 cells; assay type: cell-based; settings: for percentage of [3H]GABA reuptake retained, mGAT3: inhibitor at 100 μM, remaining reuptake
Sequence of mGAT3 (P31649 whole entry): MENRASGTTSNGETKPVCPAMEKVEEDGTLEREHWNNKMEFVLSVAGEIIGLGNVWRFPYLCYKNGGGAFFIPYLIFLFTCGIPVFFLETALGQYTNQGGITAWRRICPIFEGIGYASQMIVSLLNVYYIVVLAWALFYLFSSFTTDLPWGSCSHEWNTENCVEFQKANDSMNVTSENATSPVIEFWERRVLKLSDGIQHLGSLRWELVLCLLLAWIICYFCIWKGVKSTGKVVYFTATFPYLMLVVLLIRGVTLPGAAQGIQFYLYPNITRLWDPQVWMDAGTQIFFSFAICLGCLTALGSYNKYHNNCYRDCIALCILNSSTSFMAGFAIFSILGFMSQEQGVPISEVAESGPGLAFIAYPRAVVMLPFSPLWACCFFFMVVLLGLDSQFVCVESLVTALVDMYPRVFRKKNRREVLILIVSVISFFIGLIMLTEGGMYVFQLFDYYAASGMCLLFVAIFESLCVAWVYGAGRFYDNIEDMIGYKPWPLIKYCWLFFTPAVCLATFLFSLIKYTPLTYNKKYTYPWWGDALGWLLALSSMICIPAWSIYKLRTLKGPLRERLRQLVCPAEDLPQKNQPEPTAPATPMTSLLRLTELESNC
Description: (§1) Exemplary compounds according to the invention were screened at the Ludwig-Maximilian University of Munich to determine the inhibitory ability towards four mouse GAT transporters (mGAT1-mGAT4). […] The biological material was stably transfected human embryonic kidney HEK293 cells, expressing genes to the appropriate transporters. The generated radioactivity was measured with a liquid scintillation counter. […] These determinations were made according to the procedure described in detail in A. Kragler, G. Höfner, K. T. Wanner, Novel parent structures for inhibitors of the murine GABA transporters mGAT3 and mGAT4, Eur. J. Pharmacol. 519 (2005) 43-47.

mGAT4 = mGAT4 (Mus musculus (Mouse), UniProt P31650); experiment: [3H]GABA uptake inhibition, mGAT4 in HEK293 cells; assay type: cell-based; settings: for IC50 / pIC50 (+/−SEM) mGAT4: GABA reuptake; for IC50: read-out: pIC50 (+/−SEM) mGAT4 (converted); for percentage of [3H]GABA reuptake retained, mGAT4: inhibitor at 100 μM, remaining reuptake
Sequence of mGAT4 (P31650 whole entry): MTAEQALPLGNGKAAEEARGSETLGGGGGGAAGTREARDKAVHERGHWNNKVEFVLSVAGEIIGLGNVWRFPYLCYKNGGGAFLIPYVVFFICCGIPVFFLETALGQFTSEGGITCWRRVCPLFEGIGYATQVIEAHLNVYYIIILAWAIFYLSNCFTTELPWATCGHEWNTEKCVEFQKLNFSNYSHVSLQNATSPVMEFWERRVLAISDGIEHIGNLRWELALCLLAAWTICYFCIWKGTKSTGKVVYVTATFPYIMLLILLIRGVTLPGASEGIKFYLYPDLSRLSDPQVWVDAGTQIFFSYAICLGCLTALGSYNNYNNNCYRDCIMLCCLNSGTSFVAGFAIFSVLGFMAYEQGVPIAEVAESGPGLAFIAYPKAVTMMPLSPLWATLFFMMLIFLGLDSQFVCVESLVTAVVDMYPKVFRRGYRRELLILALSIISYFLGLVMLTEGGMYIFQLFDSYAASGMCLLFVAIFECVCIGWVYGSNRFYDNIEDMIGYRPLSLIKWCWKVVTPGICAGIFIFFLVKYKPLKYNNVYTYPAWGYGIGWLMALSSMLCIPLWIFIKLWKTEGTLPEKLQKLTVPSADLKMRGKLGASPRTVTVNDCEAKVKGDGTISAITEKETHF
Description: as §1

[2] = target: human plasma butyrylcholinesterase (hBuChE) (Homo sapiens (Human), UniProt P06276); experiment: Ellman's test, inhibition of human plasma butyrylcholinesterase; assay type: biochemical; settings: for inhibition at 1 µM: 1 μM inhibitor concentration, read-out: hBuChE % inh
Sequence of human plasma butyrylcholinesterase (hBuChE) (P06276 29-602): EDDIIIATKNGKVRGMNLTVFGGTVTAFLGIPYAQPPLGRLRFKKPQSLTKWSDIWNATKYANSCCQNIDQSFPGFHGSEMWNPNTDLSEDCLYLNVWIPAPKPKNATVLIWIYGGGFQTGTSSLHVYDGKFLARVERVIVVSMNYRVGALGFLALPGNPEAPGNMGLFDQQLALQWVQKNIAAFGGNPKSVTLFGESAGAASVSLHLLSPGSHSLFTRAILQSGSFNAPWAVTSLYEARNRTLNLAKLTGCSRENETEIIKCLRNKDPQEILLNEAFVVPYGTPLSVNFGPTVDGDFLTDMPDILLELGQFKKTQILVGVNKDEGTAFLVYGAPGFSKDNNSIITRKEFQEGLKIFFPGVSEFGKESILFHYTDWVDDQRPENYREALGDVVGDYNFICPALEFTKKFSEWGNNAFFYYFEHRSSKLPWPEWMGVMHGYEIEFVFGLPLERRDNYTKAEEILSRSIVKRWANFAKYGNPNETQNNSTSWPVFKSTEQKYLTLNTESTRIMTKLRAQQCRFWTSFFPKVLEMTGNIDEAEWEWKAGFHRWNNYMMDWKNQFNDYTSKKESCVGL
Description: (§2) The spectrophotometric Ellman's test [Ellman et al.] modified for assays in 96-well plates was used to test the activity. Reagents: 5,5′-dithiobis-(2-nitrobenzoic acid) (DTNB), eqBuChE and butyrylthiocholine iodide (BTC) were purchased from Sigma-Aldrich (Steinheim, Germany). hBuChE was from Vivonics (Bedford, MA, USA). The enzymes were prepared by dissolving in demineralized water to a concentration of 0.384 U/ml. Stock solutions of test compounds were prepared by dissolving in DMSO to a concentration of 0.0034 M. They were then diluted with water to obtain the appropriate concentrations in the wells. In the first step of the test, 25 μl of test compound (or DMSO/water mixture at the appropriate ratio for blank samples) was incubated in 0.1 M phosphate buffer (200 μl, pH=8.0) with DTNB (20 μl; 0.0025M) and with the appropriate enzyme (20 μl; eqBuChE or hBuChE) at 25° C. (animal enzyme) or 36° C. (human enzyme). After a 5 minutes incubation period, 20 μl of BTC solution (0.00375 M) was added. After another 5 minutes, the changes in absorbance of the solutions were measured at 412 nm using a multifunctional microplate reader (EnSpire Multimode; PerkinElmer; Waltham, MA, USA). All compounds were tested at a screening concentration of 10 μM (eqBuChE) or 1 μM (hBuChE). The percentage of enzyme inhibition was calculated from the equation 100-(S/B)×100, where S and B were the enzymatic activity in the test sample well and in the well without sample, respectively. […] All reactions were performed in triplicate. IC50 values were calculated using non-linear regression (GraphPad Prism 5 [GraphPad Software, San Diego, CA, USA 5.00]) for the percentage of enzyme inhibition against the inhibitor concentration used. Tacrine and donepezil were used as reference compounds.

mGAT1 = mGAT1 (Mus musculus (Mouse), UniProt P31648); experiment: [3H]GABA uptake inhibition, mGAT1 in HEK293 cells; assay type: cell-based
Description: as §1

mGAT2 = mGAT2 (Mus musculus (Mouse), UniProt P31651); experiment: [3H]GABA uptake inhibition, mGAT2 in HEK293 cells; assay type: cell-based; settings: for IC50 / pIC50 (+/−SEM) mGAT2: GABA reuptake; for IC50: read-out: pIC50 (+/−SEM) mGAT2 (converted); for percentage of [3H]GABA reuptake retained, mGAT2: inhibitor at 100 μM, remaining reuptake
Sequence of mGAT2 (P31651 whole entry): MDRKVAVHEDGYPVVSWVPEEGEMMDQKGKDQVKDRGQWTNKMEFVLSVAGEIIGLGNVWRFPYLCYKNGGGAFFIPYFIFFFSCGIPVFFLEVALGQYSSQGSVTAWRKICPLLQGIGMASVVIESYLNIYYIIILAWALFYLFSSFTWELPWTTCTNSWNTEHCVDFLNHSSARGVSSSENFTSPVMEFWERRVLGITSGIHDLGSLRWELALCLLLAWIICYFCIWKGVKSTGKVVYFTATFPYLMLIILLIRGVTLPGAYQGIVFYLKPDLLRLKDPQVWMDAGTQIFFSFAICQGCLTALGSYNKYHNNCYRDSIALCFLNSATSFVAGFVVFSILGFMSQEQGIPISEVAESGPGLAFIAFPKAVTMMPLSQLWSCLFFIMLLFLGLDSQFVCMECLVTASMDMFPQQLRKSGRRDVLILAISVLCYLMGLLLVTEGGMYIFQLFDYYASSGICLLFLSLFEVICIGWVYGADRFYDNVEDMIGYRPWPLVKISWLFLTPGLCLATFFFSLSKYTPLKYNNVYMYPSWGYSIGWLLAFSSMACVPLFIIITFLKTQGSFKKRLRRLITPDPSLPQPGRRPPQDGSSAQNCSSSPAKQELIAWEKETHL
Description: as §1

[3] = target: Recombinant human Aβ1-42 peptide (Homo sapiens (Human), UniProt P05067); experiment: Thioflavin T test, antiaggregation activity against beta-amyloid; assay type: biochemical; settings: 10 μM test compound, 1.5 μM Aβ1-42; read-out: inh. Aβ aggr. % inh
Sequence of Recombinant human Aβ1-42 peptide (P05067 672-713): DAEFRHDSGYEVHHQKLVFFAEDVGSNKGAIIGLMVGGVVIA
Description: The thioflavin T test [Levine III] was used for the determinations. Recombinant human Aβ1-42 peptide (HFIP pretreated, Merck Millipore, Darmstadt, Germany) was dissolved in DMSO to form a 75 μM stock solution. The solution was further diluted in HEPES buffer (150 mM HEPES, pH 7.4, 150 mM NaCl) to a concentration of 7.5 μM. Then, the Aβ1-42 solution was added to the test compounds (black 96-well plates were used) and diluted with thioflavin T solution (10 μM final concentration). The final mixture contained 1.5 μM Aβ1-42, 10 μM test compound, and 3% of DMSO. Fluorescence was measured every 300 s (excitation wavelength was 440 nm, emission wavelength was 490 nm) with continuous mixing between measurements. A multifunction microplate reader (Synergy H4; BioTek Instruments, Inc., Winooski, VT, USA) was used to measure the fluorescence. Fluorescence started increasing after approximately 4 hours, plateaued after 20 hours and remained virtually unchanged for the next 28 hours of incubation. The plateau-phase fluorescence intensities (in the presence and absence of test compounds) were averaged and the mean fluorescence values for the respective wells at t=0 h were subtracted from them. […] IC50 values were calculated using non-linear regression (GraphPad Prism 5 [GraphPad Software, San Diego, CA, USA 5.00]) for the percentage of aggregation inhibition against the inhibitor concentration used.

[4] = target: horse plasma butyrylcholinesterase (eqBuChE) (Equus caballus (Horse), UniProt P81908); experiment: Ellman's test, inhibition of horse plasma butyrylcholinesterase; assay type: biochemical; settings: for inhibition at 10 µM: 10 μM inhibitor concentration, read-out: eqBuChE percent inhibition of enzyme
Sequence of horse plasma butyrylcholinesterase (eqBuChE) (P81908 whole entry): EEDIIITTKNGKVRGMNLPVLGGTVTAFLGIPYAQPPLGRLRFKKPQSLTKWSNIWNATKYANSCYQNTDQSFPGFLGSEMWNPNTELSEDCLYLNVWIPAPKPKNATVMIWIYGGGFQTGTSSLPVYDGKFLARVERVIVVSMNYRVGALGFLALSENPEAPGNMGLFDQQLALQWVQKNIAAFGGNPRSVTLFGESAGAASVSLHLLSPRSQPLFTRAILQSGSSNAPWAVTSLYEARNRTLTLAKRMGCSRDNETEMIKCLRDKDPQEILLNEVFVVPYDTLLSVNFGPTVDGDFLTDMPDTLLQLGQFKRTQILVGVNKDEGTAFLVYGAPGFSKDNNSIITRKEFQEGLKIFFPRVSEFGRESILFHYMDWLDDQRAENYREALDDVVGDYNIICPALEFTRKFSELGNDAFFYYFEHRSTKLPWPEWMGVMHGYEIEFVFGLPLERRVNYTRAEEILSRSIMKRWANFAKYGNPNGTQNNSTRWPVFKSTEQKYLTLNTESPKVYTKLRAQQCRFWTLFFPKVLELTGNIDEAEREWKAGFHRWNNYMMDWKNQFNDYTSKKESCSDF
Description: as §2

Sequence of human recombinant beta-secretase (hBACE1) (P56817 46-501): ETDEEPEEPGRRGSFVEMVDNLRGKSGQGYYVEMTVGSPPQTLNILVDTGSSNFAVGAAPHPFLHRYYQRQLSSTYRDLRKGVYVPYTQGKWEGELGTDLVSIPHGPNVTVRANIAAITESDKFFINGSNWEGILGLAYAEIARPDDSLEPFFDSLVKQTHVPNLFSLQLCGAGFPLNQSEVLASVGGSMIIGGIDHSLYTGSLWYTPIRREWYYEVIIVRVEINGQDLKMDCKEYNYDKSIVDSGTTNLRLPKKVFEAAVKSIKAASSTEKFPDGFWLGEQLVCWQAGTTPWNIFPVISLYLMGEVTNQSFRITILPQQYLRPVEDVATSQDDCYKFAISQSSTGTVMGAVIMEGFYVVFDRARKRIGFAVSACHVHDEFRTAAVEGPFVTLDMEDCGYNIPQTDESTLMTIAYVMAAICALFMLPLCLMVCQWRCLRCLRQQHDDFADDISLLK

Row | SMILES | inhibition at 50 µM [1] [%] | IC50 (mGAT3; GABA reuptake, read-out: pIC50 (+/−SEM) mGAT3 (converted)) [µM] | IC50 (mGAT4) [µM] | inhibition at 1 µM [2] [%] | IC50 (mGAT1; GABA reuptake, read-out: pIC50 (+/−SEM) mGAT1 (converted)) [µM] | IC50 (mGAT2) [µM] | inhibition at 10 µM [3] [%] | IC50 [4] [µM] | pIC50 (+/−SEM) mGAT3 (mGAT3; GABA reuptake) | IC50 [2] [µM] | pIC50 (+/−SEM) mGAT1 (mGAT1; GABA reuptake) | percentage of [3H]GABA reuptake retained, mGAT2 (mGAT2) [%] | IC50 [1] [µM] | percentage of [3H]GABA reuptake retained, mGAT3 (mGAT3) [%] | percentage of [3H]GABA reuptake retained, mGAT4 (mGAT4) [%] | percentage of [3H]GABA reuptake retained, mGAT1 (mGAT1; inhibitor at 100 μM, remaining reuptake) [%] | inhibition at 10 µM [4] [%] | pIC50 (+/−SEM) mGAT4 (mGAT4) | pIC50 (+/−SEM) mGAT2 (mGAT2)
1 | COc1ccccc1CNC[C@H](O)[C@H](Cc1ccccc1)NC(=O)CC1c2ccccc2-c2ccccc21 [Compound 20, 2-(9H-fluorene-9-yl)-N-((2S,3S)-3-hydroxy-4-((2-methoxybenzyl)amino)-1-phenylbutan-2-yl)acetamide] | 71.1 | 8.32 | 4.07 | 74.5 | 9.55 | 9.12 | < 10 | 2.2 |  |  |  |  |  |  |  |  |  |  | 
2 | CC(C)(C)CNC[C@@H](O)[C@H](Cc1ccccc1)NC(=O)CC1c2ccccc2-c2ccccc21 [Compound 27, 2-(9H-fluoren-9-yl)-N-((2S,3R)-3-hydroxy-4-(neopentylamino)-1-phenylbutan-2-yl)acetamide] | 52.4 |  | 13.8 |  |  |  | 53.5 | 0.383 | 4.52 | 0.207 | 4.32 | 52 |  |  |  |  |  |  | 
3 | O=C(CC1c2ccccc2-c2ccccc21)N[C@@H](Cc1ccccc1)[C@@H](O)CNCc1ccccc1 [Compound 17, N-((2S,3S)-4-(benzylamino)-3-hydroxy-1-phenylbutan-2-yl)-2-(9H-fluorene-9-yl)acetamide] |  |  | 7.24 | 66.4 |  | 15.8 | 42.5 | 1.76 | 4.93 |  | 4.85 |  | 11.5 |  |  |  |  |  | 
4 | C[C@H](NC[C@@H](O)[C@H](Cc1ccccc1)NC(=O)C1c2ccccc2-c2ccccc21)c1ccccc1 [Compound 22, N-((2S,3R)-3-hydroxy-1-phenyl-4-(((S)-1-phenylethyl)amino)butan-2-yl)-9H-fluorene-9-carboxamide] | 72.6 |  |  | < 10 |  |  | < 10 |  |  |  |  | 97 |  | 90 | 69 | 83 | 42 |  | 
5 | O[C@H](CNCc1ccccc1)[C@H](Cc1ccccc1)NC1c2ccccc2-c2ccccc21 [Compound 1, (2R,3S)-3-((9H-fluoren-9-yl)amino)-1-(benzylamino)-4-phenylbutan-2-ol] |  |  |  |  |  |  | 82.5 | 0.627 | 5.15+/− 0.07 | 0.196 | 4.96 |  | 10.1 |  |  |  |  | 5.11 +/− 0.01 | 5.01 +/− 0.08
6 | COc1cccc(CNC[C@H](O)[C@H](Cc2ccccc2)NC2c3ccccc3-c3ccccc32)c1 [Compound 6, (2S,3S)-3-((9H-fluoren-9-yl)amino)-1-((3-methoxybenzyl)amino)-4-phenylbutan-2-ol] |  |  |  | 67.7 |  |  | 93.3 | 2.2 |  |  | 5.15 |  | 2.25 | 66 |  |  |  | 5.15 +/− 0.034 | 4.92 +/− 0.14
7 | CC(C)(C)c1cccc(CNC[C@@H](O)[C@H](Cc2ccccc2)NC2c3ccccc3-c3ccccc32)c1 [Compound 3, (2R,3S)-3-((9H-fluoren-9-yl)amino)-1-((3-(tert-butyl)benzyl)amino)-4-phenylbutan-2-ol] |  |  |  | 68 |  |  | 90.9 |  | 5.05 +/− 0.05 |  | 4.83 |  | 6.35 |  | 56 |  | 78.2 |  | 4.58
8 | COc1ccccc1CNC[C@H](O)[C@H](Cc1ccccc1)NC1c2ccccc2-c2ccccc21 [Compound 7, (2S,3S)-3-((9H-fluoren-9-yl)amino)-1-((2-methoxybenzyl)amino)-4-phenylbutan-2-ol] |  |  |  |  |  |  | 86.7 | 0.278 |  | 0.268 | 5.20 |  | 7.23 | 65 |  |  |  | 5.21 +/− 0.04 | 4.88 +/− 0.07
9 | CC(C)(C)c1ccc(CNC[C@H](O)[C@H](Cc2ccccc2)NC(=O)CC2c3ccccc3-c3ccccc32)cc1 [Compound 19, N-((2S,3S)-4-((4-(tert-butyl)benzyl)amino)-3-hydroxy-1-phenylbutan-2-yl)-2-(9H-fluoren-9-yl)acetamide] | 78.3 |  | 15.5 | 77.1 |  |  | 86.7 | 3.02 | 4.90 |  | 4.90 | 114 |  |  |  |  |  |  | 
10 | O=C(CC1c2ccccc2-c2ccccc21)N[C@@H](Cc1ccccc1)[C@H](O)CNCC1CC1 [Compound 28, N-((2S,3R)-4-((cyclopropylmethyl)amino)-3-hydroxy-1-phenylbutan-2-yl)-2-(9H-fluoren-9-yl)acetamide] |  |  | 12.6 |  |  |  | 73.4 | 1.19 | 5.09 | 0.246 | 4.87 | 10 | 12.3 |  |  |  |  |  | 
